For the test, the system named is Antibiotic-Induced Colitis in Hamsters. The experiment in a line: Antibiotic-induced colitis in hamsters (in vivo), survival. Details: species or system Syrian hamsters. The note with it: given orally at 20 micromoles per kilogram; colitis induced by 175 mg/kg clindamycin intraperitoneally; first dose about seven hours after injection, then twice a day for four more days; Hazard Ratio >1.0 = therapy prolongs survival versus vehicle. The method, then:
Antibiotic-Induced Colitis in Hamsters (In Vivo):
Male Syrian hamsters (LUG), weighing 80 to 120 g, were each given a single dose of 175 mg/kg of clindamycin-phosphate or of clindamycin-hydrochloride intraperitoneally, to induce colitis. Approximately seven hours after injection, the animals wer given the test compound orally or intraperitoneally and the therapy was continued twice a day for a period of four more days. The effect of the therapy was measured by use of the Hazard Ratio, which is the ratio of the mortality of the animals treated with the test compound contained in a vehicle to the mortality of the animals treated with the vehicle containing none of the test compound. The mortality was determined for the test compound-treated groups and for the vehicle-treated groups, respectively, twice daily, and was evaluated by comparing the survival curves of each group. The Kaplan-Meier estimate of the survival curve was calculated for each group and the Mantel-Cox (logrank) test was used to compare the survival curve of each test compound-treated (therapy) group to that of the corresponding vehicle control group.

With `CCCCCCCCOC(=O)C1CCc2cc(C(C)=O)c(OCCCCCOc3ccc(C(C)=O)c(O)c3CCC)cc2O1` (racemic) [racemic 6-acetyl-7-[5-(4-acetyl-3-hydroxy-2-propylphenoxy)pentyloxy]-3,4-dihydro-2H-1-benzopyran-2-carboxylic acid n-octyl ester], the “Hazard Ratio” value is given as 2.0.
